Here are results for one compound from patent US20240293344A1, “Unsaturated Hydroxamic Acid Derivatives and Their Use for the Treatment and Prevention of an Ammonia-Associated Disease or Disorder” (Versantis AG, priority 2021, published 2024).

The structures appear in SMILES notation.

One series concerns bacterial urease. The series is described as follows: Rat caecum content assay (urease inhibitory activity, ammonia production from urea). The series is classed as cell-based, bacteria of rat caecum content. As to conditions: read-out: IC50, bacterial urease inhibitory activity; rat caecum content with urea, 30 min at 37° C., pH 6.8. On the procedure:
To evaluate the inhibitory activity of HAs, the inventors first established an in vitro assay using rat caecum content.
The use of caecum content samples for the initial screening of urease inhibitors allowed to rapidly identify stable and membrane permeable inhibitors that cover a broad spectrum of bacterial ureases present in the gastrointestinal tract.
According to the herein established protocol, rat caecum content provided by the ETH Phenomics center was diluted in 200 mM potassium phosphate monobasic buffer pH 6.8 and centrifuged at 100×g to remove large particles. The supernatant with dispersed bacteria was collected, mixed with urea and then incubated with an increasing range of inhibitor concentrations for 30 min at 37° C. with constant shaking. In this setup initial concentrations of bacteria and urea were adjusted to the values that lead to the production of ammonia at a final concentration of approximately 1000 μM. Bacterial urease converts urea to ammonia, which was quantified by an enzymatic assay (Ammonia assay, Randox Laboratories, UK).
The established assay was then used to evaluate the potency of commercially available HAs as well as synthesized HAs of the present disclosure. As most of the tested HAs have low aqueous solubility, cyclodextrins were used to prepare water-soluble formulations of the compounds. In this study, a stock solution of acetohydroxamic acid (AHA) was prepared in DMSO, and stock solutions of octanohydroxamic acid (OHA) and 2-octynohydroxamic acid (2-octynoHA) were prepared by dissolving them in aqueous solutions of 2-hydroxypropyl-p-cyclodextrin (HPβCD) in 1:2 and 1:4 molar ratios, respectively. The obtained mixtures were sonicated and heated at 37° C. until fully dissolved.
Besides 2-octynoHA, the urease inhibitory activity of other unsaturated alkylated HAs consisting of 8 carbons was assessed. These included 2-octenohydroxamic acid (2-octenoHA), 3-octenohydroxamic acid (3-octenoHA), 3-octynohydroxamic acid (3-octynoHA) and 7-octynohydroxamic acid (7-octynoHA). Prior to assessing potency in the rat caecum content assay, stock solutions of 2-octenoHA and 3-octenoHA were prepared using HPβCD solution (1:4 molar ratio of HA to HPβCD), stock solutions of 3-octynoHA and 7-octynoHA were prepared using mixture of 10% DMSO and HPβCD solution. The 7-octynoHA presented a lower potency than unsaturated alkylated HAs having a double/triple bond at positions 2 or 3.

Series [1] relates to S. typhimurium strains (TA98, TA100, TA1535, TA1537). Kind of series: Ames test (Ames MPF Penta 1), S. typhimurium strains. As to conditions: TA98, TA100, TA1535, TA1537, with or without metabolic activation (S9). From the text:
A commercial microplate format test kit (Ames MPF™ Penta 1, Xenometrix, Switzerland) was used for this experiment. The most commonly used strains in the Ames tests, S. typhimurium with point mutations in the histidine operon and E. coli with mutations in the tryptophan operon were utilized as the model systems. The mutagenicity of the three hydroxamic acids was investigated in four S. typhimurium strains (TA98, TA100, TA1535, TA1537) and in the mixture of two E. coli strains (wp2 [pKM101] and wp2 uvrA) with and without metabolic activation (S9 fraction) according to the manufacturer's protocol.
Bacteria were exposed to 6 concentrations of the test compounds, solvent control (DMSO) and positive control substances (concentrations listed in Tables I-II below) for 90 min in the medium containing enough histidine for S. typhimurium or tryptophan for E. coli to support cell growth. After that, the cultures media were diluted with pH indicator solution lacking histidine or tryptophan and aliquoted into 48 wells of a 384-well plate. Within 48 hours, media containing cells that reverted to amino acid prototrophy turned yellow as bacteria metabolism reduced the pH of the media. The number of yellow wells containing revertant colonies was counted for each dose of the test compounds and compared to the solvent control.
Background: In the Ames test, an excess of revertant colonies over the control signals mutagenicity.

In series [2] the test system is mixture of E. coli strains (wp2 [pKM101] and wp2 uvrA). Kind of series: Ames test (Ames MPF Penta 1), E. coli strain mixture. It counts as cell-based. As to conditions: with or without metabolic activation (S9).
Excerpt: A commercial microplate format test kit (Ames MPF™ Penta 1, Xenometrix, Switzerland) was used for this experiment. […] The mutagenicity of the three hydroxamic acids was investigated in four S. typhimurium strains (TA98, TA100, TA1535, TA1537) and in the mixture of two E. coli strains (wp2 [pKM101] and wp2 uvrA) with and without metabolic activation (S9 fraction) according to the manufacturer's protocol.
Series [3] relates to N-Nitrosodiethylamine induced liver disease in rats. Kind of series: In vivo efficacy in N-nitrosodiethylamine (DEN) induced liver disease in rats, blood ammonia. As to conditions: 15 mg/kg in HPβCD solution, gavage twice a day from day 3, n=10. The arrangement: species or system rat. On the procedure:
Efficacy of 2-octynoHA was assessed in male Sprague Dawley rats (Beijing Vital River Laboratory Animal Technology Co., Ltd, China) in a model of acute liver disease. The liver damage was induced by reoccurring intraperitoneal injections of N-nitrosodiethylamine (DEN) 60 mg/kg on days 1, 3, 5, and 7.
Four groups of rats were included. The first control group was treated with a solution of HPβCD 270 mg/kg (n=10). The second group was treated with a suspension of rifaximin 30 mg/kg (n=10). The third group was treated with a suspension of rifaximin 60 mg/kg (n=10). The fourth group was treated with 15 mg/kg of 2-octynoHA dissolved in HPβCD solution (1:1 molar ratio of 2-octynoHA to HPβCD) (n=10). All groups received the treatment via gavage twice a day from day 3 to day 8. Blood samples were collected sublingually on days 0, 6 and 8. Blood ammonia level was measured in collected samples using PocketChem™ (Arkray, Japan).

Series [4] is described as follows: Stability of 2-octynoHA in solution (UHPLC-UV). It counts as physicochemical. The method, then:
Preliminary stability of 2-octynoHA was assessed in HBSS pH 7.4 supplemented with HEPES 15 mM and compared to stability of the molecule in ultra-pure water.
Both solutions of 2-octynoHA were prepared to a final concentration of 0.5 mg/mL. 2-octynoHA was incubated for ca. 20 min at 37° C. until fully dissolved in the corresponding media. Once solutions were prepared, they were subjected to UHPLC-UV analysis within ca. 1 h while being kept at room temperature. For chromatographic separation and spectrophotometric analysis, 2 μL of each solution were injected. The chromatographic separation was performed on a 10 cm Polar C18 UHPLC column with a mobile phase composed of water, acetonitrile and formic acid 0.1%.
Detection was performed on a diode array detector by monitoring UV absorbance at 200 nm. 2-octynoHA was detected at 200 nm with RT=5.36 min in both solutions.
In order to identify the product of degradation, a solution of 2-octynoHA 10 mM was prepared in phosphate buffer (KH2PO4 200 mM pH 6.8) and left to incubate overnight at 37° C. […] The product of degradation was then extracted with chloroform, the organic phase was collected, dried over Na2SO4 and filtered. The solvent was evaporated, the obtained substance was dissolved in deuterated dimethyl sulfoxide (DMSO-d6) for ^1H NMR analysis.

On to `CCCCCC#CC(=O)NO` [2-octynoHA, N-hydroxyoct-2-ynamide], for which the IC50 in the series with bacterial urease is around 38 µM. For the same compound, the “mutagenicity (reverse mutations)” value in series [1] and in series [2] was “not mutagenic up to 1 mM” each time. The “blood ammonia level on day 6” value in series [3] came out at 20 ± 9.6 µM. Further, the “degradation in solution (UHPLC-UV)” value in series [4] (0.5 mg/mL in HBSS pH 7.4 with HEPES 15 mM, ca. 20 min at 37° C., analysed within ca. 1 h at room temperature) is on record as “degraded”; in series [4] (0.5 mg/mL in ultra-pure water, ca. 20 min at 37° C., analysed within ca. 1 h at room temperature), “No degradation”; in series [4] (10 mM in KH2PO4 200 mM pH 6.8, overnight at 37° C.), “Complete degradation”.

Usually IC50 stands for the concentration at which inhibition is half-maximal.
